Experimental data reported in US20080113344A1, “Methods and Compositions for the Response Prediction of Malignant Neoplasia to Treatment” (priority 2003, published 2008).

System: breast cancer
Test: Retrospective clinical study of adjuvant tamoxifen treatment of breast cancer
Format: in vivo, human
Details: overexpression of PPARBP
Excerpt: In particular, elevated levels of the PPARBP gene and protein and the integrity of the telomeric hormone receptor region of the 17q21 ARCHEON, bearing THRA, NR1D1 and RARA, or its related regions on the other ARCHEONs are of importance for these therapeutic regimens. […] Overexpression of PPARBP enables activity of estrogen and progesteron receptors irrespective of a bound ligand. Therefore, the deregulation of the PPARBP results in the activity of these hormone receptors in the absence of the hormones and even in the presence of anti-hormones and thereby circumvents the anti tumor effect of anti hormonal strategies resulting in resistance of PPARBP overexpressing cells. In addition overexpression of hormone receptors other than estrogen receptor in tumor cells affects activity of estrogen or the respective anti-hormones by competition for dimerization partners, such as RXR, or transcriptional activator or repressor genes, such as CBP or NCOR. With regard to tamoxifen treatment this clearly diminishes the effect of the anti-hormone, as the pool of the transcriptional cofactors is reduced for the classical mode of action of tamoxifen within the nucleus.

For `CC/C(=C(\c1ccccc1)c1ccc(OCCN(C)C)cc1)c1ccccc1` [tamoxifen], the “overall survival of patients receiving adjuvant tamoxifen” value was “has impact on the overall survival”.
